Assay results from US20090093473A1, “Spiro-benzimidazoles as inhibitors of gastric acid secretion” (priority 2005, published 2009).

What was measured:
[1] = test system: pentagastrin-stimulated acid secretion of the perfused rat stomach; assay: Secretion-inhibiting action on the perfused rat stomach (pentagastrin-stimulated acid secretion); type: in vivo; conditions: intraduodenal, anesthetized CD rat, dose 1 μmol/kg i.d.
Source text: Testing of the Secretion-Inhibiting Action on the Perfused Rat Stomach
In Table A which follows, the influence of the compounds of the formula 1 according to the invention on the pentagastrin-stimulated acid secretion of the perfused rat stomach after intraduodenal administration in vivo is shown.
The abdomen of anesthetized rats (CD rat, female, 200-250 g; 1.5 g/kg i.m. urethane) was opened after tracheotomy by a median upper abdominal incision and a PVC catheter was fixed transorally in the esophagus and another via the pylorus such that the ends of the tubes just projected into the gastric lumen. The catheter leading from the pylorus led outward into the right abdominal wall through a side opening.
After thorough rinsing (about 50-100 ml), warm (37° C.) physiological NaCl solution was conbinuously passed through the stomach (0.5 ml/min, pH 6.8-6.9; Braun-Unita I). The pH (pH meter 632, glass electrode EA 147; φ=5 mm, Metrohm) and, by titration with a freshly prepared 0.01N NaOH solution to pH 7 (Dosimat 665 Metrohm), the secreted HCl were determined in the effluent in each case collected at an interval of 15 minutes.
The gastric secretion was stimulated by continuous infusion of 1 μg/kg (=1.65 mllh) of i.v. pentagastrin (left femoral vein) about 30 min after the end of the operation (i.e. after determination of 2 preliminary fractions). The substances to be tested were administered intraduodenally in a 2.5 ml/kg liquid volume 60 min after the start of the continuous pentagastrin infusion. The body temperature of the animals was kept at a constant 37.8-38° C. by infrared irradiation and heat pads (automatic, stepless control by means of a rectal temperature sensor).

melting point | SMILES | inhibition in vivo at 1 µmol/kg [1]
309 to 311 °C | CNC(=O)c1cc2c(nc(C)n2C)c2c1CCC1(Cc3ccccc3C1)N2.Cl | –
294 to 295 °C | COCCNC(=O)c1cc2c(nc(C)n2C)c2c1CCC1(Cc3ccccc3C1)N2.Cl | –
167 to 168 °C | CCOC(=O)c1cc2c(nc(C)n2C)c2c1CCC1(Cc3ccccc3C1)N2 [Example 1, Ethyl 2,3-dimethyl-1′,3,3′,6,7,9-hexahydrospiro[imidazo[4,5-h]quinoline-8,2′-indene]-5-carboxylate] | –
142 to 142.5 °C | C=CCn1c(C)nc2c3c(c(C(=O)OC)cc21)CCC1(Cc2ccccc2C1)N3 [Example 2, Methyl 3-allyl-2-methyl-1′,3,3′,6,7,9-hexahydrospiro[imidazo[4,5-h]quinoline-8,2′-indene]-5-carboxylate] | –
150 °C | C=CCn1c(C)nc2c3c(c(C(=O)OCC)cc21)CCC1(Cc2ccccc2C1)N3 [Example 3, Ethyl 3-allyl-2-methyl-1′,3,3′,6,7,9-hexahydrospiro[imidazo[4,5-h]quinoline-8,2′-indene]-5-carboxylate] | –
237 to 238 °C | CNC(=O)c1cc2c(nc(C)n2C)c2c1CCC1(Cc3ccccc3C1)N2 [Example 4, N,2,3-Trimethyl-1′,3,3′,6,7,9-hexahydrospiro[imidazo[4,5-h]quinoline-8,2′-indene]-5-carboxamide] | > 80%
272 to 274 °C | Cc1nc2c3c(c(CO)cc2n1C)CCC1(Cc2ccccc2C1)N3 [Example 6, (2,3-Dimethyl-1′,3,3′,6,7,9-hexahydrospiro[imidazo[4,5-h]quinoline-8,2′-inden]-5-yl)-methanol] | –
240 to 241 °C | CNC(=O)c1cc2[nH]c(C)nc2c2c1CCC1(Cc3ccccc3C1)N2 [Example 9, N,2-dimethyl-1′,3,3′,6,7,9-hexahydrospiro[imidazo[4,5-h]quinoline-8,2′-indene]-5-carboxamide] | –
183 °C | Cc1nc2c3c(c(C(=O)N(C)C)cc2[nH]1)CCC1(Cc2ccccc2C1)N3 [Example 10, N,N,2-Trimethyl-1′,3,3′,6,7,9-hexahydrospiro[imidazo[4,5-h]quinoline-8,2′-indene]-5-carboxamide] | –
178 to 179 °C | Cc1nc2c3c(c(C(=O)N(C)C)cc2n1C)CCC1(Cc2ccccc2C1)N3 [Example 11, N,N,2,3-tetramethyl-1′,3,3′,6,7,9-hexahydrospiro[imidazo[4,5-h]quinoline-8,2′-indene]-5-carboxamide] | > 80%
194 to 195 °C | Cc1nc2c3c(c(C(=O)N(C)CCO)cc2n1C)CCC1(Cc2ccccc2C1)N3 [Example 12, N-(2-hydroxyethyl)-N,2,3-trimethyl-1′,3,3′,6,7,9-hexahydrospiro[imidazo[4,5-h]quinoline-8,2′-indene]-5-carboxamide] | –
171 to 172 °C | Cc1nc2c3c(c(C(=O)N4CC(O)C4)cc2n1C)CCC1(Cc2ccccc2C1)N3 [Example 13, 1-[(2,3-dimethyl-1′,3,3′,6,7,9-hexahydrospiro[imidazo[4,5-h]quinoline-8,2′-inden]-5-yl)-carbonyl]azetidin-3-ol] | –
222 to 223 °C | CC(=O)CNC(=O)c1cc2c(nc(C)n2C)c2c1CCC1(Cc3ccccc3C1)N2 [Example 14, 2,3-dimethyl-N-(2-oxopropyl)-1′,3,3′,6,7,9-hexahydrospiro[imidazo[4,5-h]quinoline-8,2′-indene]-5-carboxamide] | > 80%
259 to 260 °C | Cc1nc2c3c(c(C(=O)N4CC(F)C4)cc2n1C)CCC1(Cc2ccccc2C1)N3 [Example 15, 5-[(3-fluoroazetidin-1-yl)carbonyl]-2,3-dimethyl-1′,3,3′,6,7,9-hexahydrospiro[imidazo[4,5-h]quinoline-8,2′-indene]] | > 80%
186 to 187 °C | COCCNC(=O)c1cc2c(nc(C)n2C)c2c1CCC1(Cc3ccccc3C1)N2 [Example 16, N-(2-methoxyethyl)-2,3-dimethyl-1′,3,3′,6,7,9-hexahydrospiro[imidazo[4,5-h]quinoline-8,2′-indene]-5-carboxamide] | > 80%
167 to 168 °C | Cc1nc2c3c(c(C(=O)NCCO)cc2n1C)CCC1(Cc2ccccc2C1)N3 [Example 17, N-(2-hydroxyethyl)-2,3-dimethyl-1′,3,3′,6,7,9-hexahydrospiro[imidazo[4,5-h]quinoline-8,2′-indene]-5-carboxamide] | –
272 to 273 °C | Cc1nc2c3c(c(C(N)=O)cc2n1C)CCC1(Cc2ccccc2C1)N3 [Example 18, 2,3-dimethyl-1′,3,3′,6,7,9-hexahydrospiro[imidazo[4,5-h]quinoline-8,2′-indene]-5-carboxamide] | > 80%
258 to 259 °C | Cc1nc2c3c(c(C(=O)N(C)C[C@H](C)O)cc2n1C)CCC1(Cc2ccccc2C1)N3 [Example 19, N-[(2S)-2-hydroxypropyl]-N,2,3-trimethyl-1′,3,3′,6,7,9-hexahydrospiro[imidazo[4,5-h]-quinoline-8,2′-indene]-5-carboxamide] | –
224 to 225 °C | Cc1nc2c3c(c(C(=O)NC[C@H](C)O)cc2n1C)CCC1(Cc2ccccc2C1)N3 [Example 20, N-[(2S)-2-hydroxypropyl]-2,3-dimethyl-1′,3,3′,6,7,9-hexahydrospiro[imidazo[4,5-h]-quinoline-8,2′-indene]-5-carboxamide] | –
160 to 161 °C | COCCN(C)C(=O)c1cc2c(nc(C)n2C)c2c1CCC1(Cc3ccccc3C1)N2 [Example 21, N-(2-methoxyethyl)-N,2,3-trimethyl-1′,3,3′,6,7,9-hexahydrospiro[imidazo[4,5-h]quinoline-8,2′-indene]-5-carboxamide] | > 80%
263 to 264 °C | Cc1nc2c3c(c(C(=O)N4CCCC4)cc2n1C)CCC1(Cc2ccccc2C1)N3 [Example 22, 2,3-dimethyl-5-(pyrrolidin-1-ylcarbonyl)-1′,3,3′,6,7,9-hexahydrospiro[imidazo[4,5-h]-quinoline-8,2′-indene]] | > 80%
237 to 238 °C | Cc1nc2c3c(c(C(=O)NCCCO)cc2n1C)CCC1(Cc2ccccc2C1)N3 [Example 26, N-(3-hydroxypropyl)-2,3-dimethyl-1′,3,3′,6,7,9-hexahydrospiro[imidazo[4,5-h]quinoline-8,2′-indene]-5-carboxamide] | –
321 to 324 °C | CNC(=O)c1cc2c(nc(C)n2C)c2c1CCC1(Cc3ccccc3C1)N2.CS(=O)(=O)O [Example 28, N,2,3-Trimethyl-1′,3,3′,6,7,9-hexahydrospiro[imidazo[4,5-h]quinoline-8,2′-indene]-5-carboxamide methanesulphonate] | –
261 to 263 °C | CNC(=O)c1cc2c(nc(C)n2C)c2c1CCC1(Cc3ccccc3C1)N2.O=C(O)CC(=O)O [Example 30, N,2,3-Trimethyl-1′,3,3′,6,7,9-hexahydrospiro[imidazo[4,5-h]quinoline-8,2′-indene]-5-carboxamide malonate] | –
180 to 181 °C | CCOCCNC(=O)c1cc2c(nc(C)n2C)c2c1CCC1(Cc3ccccc3C1)N2 [Example 31, N-(2-ethoxyethyl)-2,3-dimethyl-1′,3,3′,6,7,9-hexahydrospiro[imidazo[4,5-h]quinoline-8,2′-indene]-5-carboxamide] | –
223 to 224 °C | CCNC(=O)c1cc2c(nc(C)n2C)c2c1CCC1(Cc3ccccc3C1)N2 [Example 32, N-ethyl-2,3-dimethyl-1′,3,3′,6,7,9-hexahydrospiro[imidazo[4,5-h]quinoline-8,2′-indene]-5-carboxamide] | –
191 to 192 °C | COCCNC(=O)c1cc2c(nc(C)n2C)c2c1CCC1(Cc3ccccc3C1)N2.O=C(O)/C=C\C(=O)O [Example 33, N-(2-methoxyethyl)-2,3-dimethyl-1′,3,3′,6,7,9-hexahydrospiro[imidazo[4,5-h]quinoline-8,2′-indene]-5-carboxamide maleate] | –
176 to 177 °C | COCCNC(=O)c1cc2c(nc(C)n2C)c2c1CCC1(Cc3ccccc3C1)N2.O=C(O)CC(=O)O [Example 34, N-(2-methoxyethyl)-2,3-dimethyl-1′,3,3′,6,7,9-hexahydrospiro[imidazo[4,5-h]quinoline-8,2′-indene]-5-carboxamide malonate] | –
242 to 243 °C | Cc1nc2c3c(c(C(=O)NC4CC4)cc2n1C)CCC1(Cc2ccccc2C1)N3.O=C(O)C(=O)O [Example 36, N-cyclopropyl-2,3-dimethyl-1′,3,3′,6,7,9-hexahydrospiro[imidazo[4,5-h]quinoline-8,2′-indene]-5-carboxamide oxalate] | –
308 to 309 °C | CS(=O)(=O)O.Cc1nc2c3c(c(C(=O)NC4CC4)cc2n1C)CCC1(Cc2ccccc2C1)N3 [Example 37, N-cyclopropyl-2,3-dimethyl-1′,3,3′,6,7,9-hexahydrospiro[imidazo[4,5-h]quinoline-8,2′-indene]-5-carboxamide methanesulphonate] | –
